Literature values as cited in patent publication US6869622B2, “Composition for improving sleep quality and efficiency, and methods of preparing and using the composition” (Ancile Pharmaceuticals, Inc., priority 1999, dated 2005).
Like-named read-outs stand apart in the source and are kept apart here.

Tests used:
[1] = test system: enzyme system which catalyses breakdown of GABA in the brain; settings: 1 mmole/liter
[2] = test system: AMES assay and the SOS-chromo-test
[3] = test system: mouse; settings: 50 and 100 mg/kg, IP
[4] = test system: mice
[5] = test system: mice; settings: 12.5 and 25 mg/kg, IP in mice
[6] = test system: mice; settings: 26 mg/kg, IP or PO

CC(=O)O[C@@H]1CC(C)=C2[C@H]1[C@H](C)CC[C@H]2/C=C(\C)C(=O)O [acetoxyvalerenic acid, Acetoxyvalerenic Acid]
Inhibition of enzyme system which catalyses breakdown of GABA [1]: 38%

CC(C)CC(=O)OCc1cocc2c(C=O)ccc1-2 [homobaldrinal]
Genotoxicity in vitro [2]: direct mutagenic effects

CC1=C2[C@H](/C=C(\C)C(=O)O)CC[C@@H](C)[C@H]2CC1 [valerenic acid, Valerenic Acid]
Pentobarbital induced sleeping time [3]: potentiate | Behavioural effects ([4]; 100 mg/kg intraperitoneally, mice): decrease in motor activity, a decrease in respiratory rate, absence of righting reflex, ataxia, a decrease of abdominal muscle tone, and a decrease in rotarod performance | Performance on rotarod and traction tests ([4]; 100 mg/kg, IP): statistical significance | Inhibition of enzyme system which catalyses breakdown of GABA [1]: 20% | Picrotoxin induced convulsions [5]: antagonized

CC(=O)OCc1cocc2c(C=O)ccc1-2 [baldrinal]
Genotoxicity in vitro ([2]; AMES assay and SOS-chromo-test): direct mutagenic effects | Metabolic degradation of 14C-methacetin [6]: distinctly inhibited
